This note sets out measurements from US11697646B2, “Triazole N-linked carbamoyl cyclohexyl acids as LPA antagonists” (BRISTOL-MYERS SQUIBB COMPANY, priority 2017, dated 2023).

For orientation: IC50 means the concentration that gives 50% inhibition.

For one experiment, the target named is T1, human LPA1 (Homo sapiens, UniProt Q92633).
T1 construct: expressed in transfected cells; host or cells: Chinese hamster ovary (CHO) cells
T1 sequence (Q92633 whole entry): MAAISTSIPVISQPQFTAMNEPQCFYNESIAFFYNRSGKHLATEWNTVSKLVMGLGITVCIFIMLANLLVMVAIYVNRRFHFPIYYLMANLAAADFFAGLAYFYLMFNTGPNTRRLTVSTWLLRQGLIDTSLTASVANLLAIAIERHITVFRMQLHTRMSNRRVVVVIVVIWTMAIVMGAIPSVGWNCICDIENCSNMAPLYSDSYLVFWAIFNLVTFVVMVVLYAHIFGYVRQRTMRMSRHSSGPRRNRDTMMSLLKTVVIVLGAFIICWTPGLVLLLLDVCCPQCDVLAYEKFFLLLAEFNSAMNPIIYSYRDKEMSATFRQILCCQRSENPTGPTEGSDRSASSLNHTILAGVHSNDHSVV
The experiment can be described thus: LPA1 functional antagonist assay (calcium flux). In kind it is cell-based. The conditions noted are these: CHO cells overexpressing human LPA1; calcium flux induced by 10 nM LPA; read-out: hLPA1 IC50. How it is done:
The effectiveness of compounds of the present invention as LPA1 inhibitors can be determined in an LPA1 functional antagonist assay as follows:
The cells were then equilibrated to room temperature for 30 minutes before the assay. […] IC50 values were determined by fitting data to a 4-parameter logistic equation (GraphPad Prism, San Diego Calif.).
Background: A change in cytosolic calcium serves as a functional read-out for many receptors and channels.
Regarding `Cc1nc(-c2nnn(C)c2CNC(=O)N[C@H](C)c2ccccc2)ccc1O[C@H]1CCC[C@H](C(=O)O)C1` [Example 130, (1S,3S)-3-((2-methyl-6-(1-methyl-5-((3-((R)-1-phenylethyl)ureido)methyl)-1H-1,2,3-triazol-4-yl)pyridin-3-yl)oxy)cyclohexane-1-carboxylic acid], the 50% inhibitory concentration (IC50) turned out to be 275 nM.

On to `C[C@@H](OC(=O)Nc1c(-c2ccc(O[C@H]3CCC[C@H](C(=O)O)C3)cn2)nnn1C)C1CC1` [Example 82, (1S,3S)-3-((6-(5-((((R)-1-cyclopropyl-ethoxy)carbonyl)amino)-1-methyl-1H-1,2,3-triazol-4-yl)pyridin-3-yl)oxy)cyclohexane-1-carboxylic acid], for which the IC50 is 79 nM.

Consider `Cn1nnc(-c2ccc(O[C@H]3CCC[C@H](C(=O)O)C3)cn2)c1CNC(=O)OCC1(C)CC1` [Example 52, (1S,3S)-3-((6-(1-methyl-5-(((((1-methylcyclopropyl)methoxy)carbonyl)amino)methyl)-1H-1,2,3-triazol-4-yl)pyridin-3-yl)oxy)cyclohexane-1-carboxylic acid], for which the IC50 turned out to be 81 nM.

Regarding `Cc1nc(-c2nnn(C)c2CNC(=O)OC(C)(C)C)ccc1O[C@H]1CCC[C@H](C(=O)O)C1` [Example 30, (1S,3S)-3-((6-(5-(((tert-butoxycarbonyl)amino)methyl)-1-methyl-1H-1,2,3-triazol-4-yl)-2-methylpyridin-3-yl)oxy)cyclohexane-1-carboxylic acid], the 50% inhibitory concentration (IC50) was 120 nM.

With `CCc1nc(-c2nnn(C)c2CNC(=O)N(C)Cc2ccccc2)ccc1O[C@H]1CCC[C@H](C(=O)O)C1` [Example 149, (1S,3S)-3-((6-(5-((3-benzyl-3-methylureido)methyl)-1-methyl-1H-1,2,3-triazol-4-yl)-2-ethyl-pyridin-3-yl)oxy)cyclohexane-1-carboxylic acid], the half-maximal inhibitory concentration (IC50) is 143 nM.

For `CCCC1(COC(=O)NCc2c(-c3ccc(O[C@H]4CCC[C@H](C(=O)O)C4)c(C)n3)nnn2C)CCC1` [Example 54], the IC50 stood at 58 nM.

As to `CCCCC(=O)NCc1c(-c2ccc(O[C@H]3CCC[C@H](C(=O)O)C3)c(C)n2)nnn1C` [Example 237, (1S,3S)-3-((2-methyl-6-(1-methyl-5-(pentanamidomethyl)-1H-1,2,3-triazol-4-yl)pyridin-3-yl)oxy)cyclo-hexanecarboxylic acid], the IC50 stood at 783 nM.

As to `Cc1nc(-c2nnn(C)c2NC(=O)OCC2(C)CC2)ccc1O[C@H]1CCC[C@H](C(=O)O)C1` [Example 224, (1S,3S)-3-((2-methyl-6-(1-methyl-5-((((1-methylcyclopropyl)methoxy)carbonyl)amino)-1H-1,2,3-triazol-4-yl)pyridin-3-yl)oxy)cyclohexane-1-carboxylic acid], the IC50 came to 60 nM.

For the compound `Cn1nnc(-c2ccc(O[C@H]3CCC[C@H](C(=O)O)C3)cn2)c1NC(=O)OCC1CCCCC1` [Example 86, (1S,3S)-3-((6-(5-(((cyclohexyl-methoxy)carbonyl)amino)-1-methyl-1H-1,2,3-triazol-4-yl)pyridin-3-yl)oxy)cyclohexane-1-carboxylic acid], the concentration for half-maximal inhibition (IC50) amounted to 36 nM.

For `Cc1nc(-c2nnn(C)c2CN(C)C(=O)OCc2ccccc2)ccc1O[C@H]1CCC[C@H](C(=O)O)C1` [Example 35, (1S,3S)-3-((6-(5-((((benzyloxy)carbonyl)(methyl)amino)methyl)-1-methyl-1H-1,2,3-triazol-4-yl)-2-methylpyridin-3-yl)oxy)cyclohexanecarboxylic acid], the IC50 was 56 nM.

As for `Cc1nc(-c2nnn(C)c2CNC(=O)OCc2cccc(F)c2)ccc1O[C@H]1CCC[C@H](C(=O)O)C1` [Example 11, (1S,3S)-3-((6-(5-(((((3-fluorobenzyl)oxy)carbonyl)amino)methyl)-1-methyl-1H-1,2,3-triazol-4-yl)-2-methylpyridin-3-yl)oxy)cyclohexane-1-carboxylic acid], the IC50 worked out at 6 nM.

Turning to `Cc1nc(-c2nnn(C)c2CN(C)C(=O)N(C)Cc2ccccc2)ccc1O[C@H]1CCC[C@H](C(=O)O)C1` [Example 115, (1S,3S)-3-((6-(5-((3-benzyl-1,3-dimethylureido)methyl)-1-methyl-1H-1,2,3-triazol-4-yl)-2-methyl-pyridin-3-yl)oxy)cyclohexane-1-carboxylic acid], the IC50 came to 166 nM.

Consider `Cc1nc(-c2nnn(C)c2CNC(=O)N(C)C(C)C(C)C)ccc1O[C@H]1CCC[C@H](C(=O)O)C1` (single isomer, unassigned) [Example 125], for which the IC50 stood at 1210 nM.

In the case of `CC(C)COC(=O)NCc1c(-c2ccc(O[C@H]3CCC[C@H](C(=O)O)C3)c(C(F)(F)F)n2)nnn1C` [Example 93, (1S,3S)-3-((6-(5-(((isobutoxy-carbonyl)amino)methyl)-1-methyl-1H-1,2,3-triazol-4-yl)-2-(trifluoro-methyl)pyridin-3-yl)oxy)cyclohexane-1-carboxylic acid], the IC50 was 25 nM.

In the case of `Cc1nc(-c2nnn(C)c2CNC(=O)OCC2CCC2)ccc1O[C@H]1CCC[C@H](C(=O)O)C1` [Example 33, (1S,3S)-3-((6-(5-((((cyclobutylmethoxy)carbonyl)amino)methyl)-1-methyl-1H-1,2,3-triazol-4-yl)-2-methylpyridin-3-yl)oxy)cyclohexane-1-carboxylic acid], the IC50 is 11 nM.

Take `CCc1nc(-c2nnn(C)c2CNC(=O)OCC(C)(C)C)ccc1O[C@H]1CCC[C@H](C(=O)O)C1` [Example 45, (1S,3S)-3-((2-ethyl-6-(1-methyl-5-((((neopentyloxy)carbonyl)amino)methyl)-1H-1,2,3-triazol-4-yl)pyridin-3-yl)oxy)cyclohexane-1-carboxylic acid]: the IC50 stood at 94 nM.

As to `Cc1nc(-c2nnn(C)c2CNC(=O)OCC2CC2)ccc1O[C@H]1CCC[C@H](C(=O)O)C1` [Example 7, (1S,3S)-3-((6-(5-((((cyclopropylmethoxy)carbonyl)amino)methyl)-1-methyl-1H-1,2,3-triazol-4-yl)-2-methylpyridin-3-yl)oxy)cyclohexane-1-carboxylic acid], the IC50 was determined as 47 nM.

As to `Cc1nc(-c2nnn(C)c2CNC(=O)OCC(C)C)c(F)cc1O[C@H]1CCC[C@H](C(=O)O)C1` [Example 213], the IC50 came to 382 nM.

Regarding `Cc1nc(-c2nnn(C)c2CNC(=O)N(C)[C@H](C)c2ccccc2)ccc1O[C@H]1CCC[C@H](C(=O)O)C1` [Example 131, (1S,3S)-3-((2-methyl-6-(1-methyl-5-((3-methyl-3-((R)-1-phenylethyl)ureido)methyl)-1H-1,2,3-triazol-4-yl)pyridin-3-yl)oxy)cyclohexane-1-carboxylic acid], the IC50 was 217 nM.

For the compound `Cc1nc(-c2nnn(C)c2CNC(=O)N(C)CC2CCC2)ccc1O[C@H]1CCC[C@H](C(=O)O)C1` [Example 108, (1S,3S)-3-((6-(5-((3-(cyclobutylmethyl)-3-methylureido)methyl)-1-methyl-1H-1,2,3-triazol-4-yl)-2-methylpyridin-3-yl)oxy)cyclohexanecarboxylic acid], the IC50 came out at 82 nM.

Turning to `CCCCN(C)S(=O)(=O)N(C)Cc1c(-c2ccc(O[C@H]3CCC[C@H](C(=O)O)C3)c(C)n2)nnn1C` [Example 229, (1S,3S)-3-((6-(5-(((N-butyl-N-methyl-sulfamoyl)(methyl)amino)methyl)-1-methyl-1H-1,2,3-triazol-4-yl)-2-methylpyridin-3-yl)oxy)cyclohexane-1-carboxylic acid], the IC50 amounted to 110 nM.

Consider `Cc1nc(-c2nnn(C)c2CNC(=O)NCc2ccccc2)ccc1O[C@H]1CCC[C@H](C(=O)O)C1` [Example 112, (1S,3S)-3-((6-(5-((3-benzylureido)methyl)-1-methyl-1H-1,2,3-triazol-4-yl)-2-methylpyridin-3-yl)oxy)cyclohexane-1-carboxylic acid], for which the IC50 stood at 63 nM.

`CCCCOC(=O)Nc1c(-c2ccc(O[C@H]3CCC[C@H](C(=O)O)C3)cn2)nnn1C` [Example 89, (1S,3S)-3-((6-(5-((butoxycarbonyl)amino)-1-methyl-1H-1,2,3-triazol-4-yl)pyridin-3-yl)oxy)cyclohexane-1-carboxylic acid]: the 50% inhibitory concentration (IC50) came out at 66 nM.

The same experiment, now with this note: human LPA1 functional antagonist assay; read-out: hLPA1 IC50.
For the compound `Cc1nc(-c2nnn(C)c2CNC(=O)OC2CC(C)(C)C2)ccc1O[C@H]1CCC[C@H](C(=O)O)C1` [Example 168, (1S,3S)-3-((6-(5-((((3,3-dimethyl-cyclobutoxy)carbonyl)amino)methyl)-1-methyl-1H-1,2,3-triazol-4-yl)-2-methylpyridin-3-yl)oxy)cyclo-hexane-1-carboxylic acid], the IC50 is 90 nM.

For the compound `CC[C@H](C)OC(=O)NCc1c(-c2ccc(O[C@H]3CCC[C@H](C(=O)O)C3)c(C)n2)nnn1C` [Example 175, (1S,3S)-3-((6-(5-((((S)-sec-butoxy-carbonyl)amino)methyl)-1-methyl-1H-1,2,3-triazol-4-yl)-2-methyl-pyridin-3-yl)oxy)cyclohexane-1-carboxylic acid], the IC50 came to 95 nM.

Take `Cc1nc(-c2nnn(C)c2CNC(=O)OCCCCF)ccc1O[C@H]1CCC[C@H](C(=O)O)C1` [Example 162, (1S,3S)-3-((6-(5-((((4-fluorobutoxy)carbonyl)amino)methyl)-1-methyl-1H-1,2,3-triazol-4-yl)-2-methyl-pyridin-3-yl)oxy)cyclohexane-1-carboxylic acid]: the IC50 was found to be 60 nM.

In the case of `Cc1nc(-c2nnn(C)c2CNC(=O)OCCC(C)(C)C)cnc1O[C@H]1CCC[C@H](C(=O)O)C1` [Example 158, (1S,3S)-3-((5-(5-((((3,3-dimethyl-butoxy)carbonyl)amino)methyl)-1-methyl-1H-1,2,3-triazol-4-yl)-3-methylpyrazin-2-yl)oxy)cyclo-hexane-1-carboxylic acid], the IC50 came to 76 nM.

For `Cc1nc(-c2nnn(C)c2CNC(=O)OCCC2CC2)cnc1O[C@H]1CCC[C@H](C(=O)O)C1` [Example 160, (1S,3S)-3-((5-(5-((((2-cyclopropylethoxy)carbonyl)amino)methyl)-1-methyl-1H-1,2,3-triazol-4-yl)-3-methylpyrazin-2-yl)oxy)cyclo-hexane-1-carboxylic acid], the IC50 is 66 nM.
